Data reported in the supplement of paper PMC10307832.

Experiments:
Test in all cases: relative viability (nuclei count vs DMSO), 5 days (fraction); higher = more cells survive
ChaGo-K-1 = system: ChaGo-K-1
Procedure, shortened: (§1)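 Nuclei were stained with Hoechst during a one-step fixation (final 0.05% Triton X-100, 1% formaldehyde, 1 ug/ml Hoechst) carried out 5 days after dosing, then counted on 4× images. The cells, lung cancer lines in 1536-well plates, had been dosed by pin tool the day after seeding with one drug alone or a fixed anchor-drug dose plus five library-drug doses (not always all listed) in √10 steps. Relative viability is the nuclei count in treated wells divided by that in vehicle wells, and each value is the median of duplicate plates.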

EMC-BAC-2 = system: EMC-BAC-2
Procedure, shortened: as §1

EPLC-272H = system: EPLC-272H
Procedure, shortened: as §1

HCC-44 = system: HCC-44
Procedure, shortened: as §1

HOP-62 = system: HOP-62
Procedure, shortened: as §1

LCLC-97TM1 = system: LCLC-97TM1
Procedure, shortened: as §1

LOU-NH91 = system: LOU-NH91
Procedure, shortened: as §1

NCI-H1395 = system: NCI-H1395
Procedure, shortened: as §1

NCI-H1975 = system: NCI-H1975
Procedure, shortened: as §1

NCI-H1993 = system: NCI-H1993
Procedure, shortened: as §1

NCI-H2085 = system: NCI-H2085
Procedure, shortened: as §1

NCI-H2126 = system: NCI-H2126
Procedure, shortened: as §1

NCI-H2170 = system: NCI-H2170
Procedure, shortened: as §1

NCI-H2228 = system: NCI-H2228
Procedure, shortened: as §1

NCI-H2405 = system: NCI-H2405
Procedure, shortened: as §1

NCI-H3122 = system: NCI-H3122
Procedure, shortened: as §1

NCI-H322M = system: NCI-H322M
Procedure, shortened: as §1

NCI-H460 = system: NCI-H460
Procedure, shortened: as §1

NCI-H520 = system: NCI-H520
Procedure, shortened: as §1

NCI-H647 = system: NCI-H647
Procedure, shortened: as §1

SK-LU-1 = system: SK-LU-1
Procedure, shortened: as §1

Compound: Oc1nc(-c2ccc(C(F)(F)F)cc2)nc2c1CSCC2 [XAV939] + CC1(C)CCC(c2ccc(Cl)cc2)=C(CN2CCN(c3ccc(C(=O)NS(=O)(=O)c4ccc(N[C@H](CCN5CCOCC5)CSc5ccccc5)c(S(=O)(=O)C(F)(F)F)c4)cc3)CC2)C1 [Navitoclax] (partner 0.5 µM)
- relative viability (ChaGo-K-1; first compound 0.08 µM): 0.898
- relative viability (ChaGo-K-1; first compound 0.253 µM): 0.914
- relative viability (ChaGo-K-1; first compound 0.8 µM): 0.998
- relative viability (ChaGo-K-1; first compound 2.53 µM): 1.04
- relative viability (EMC-BAC-2; first compound 0.08 µM): 1.28
- relative viability (EMC-BAC-2; first compound 0.253 µM): 1.04
- relative viability (EMC-BAC-2; first compound 0.8 µM): 1.1
- relative viability (EMC-BAC-2; first compound 2.53 µM): 0.793
- relative viability (EPLC-272H; first compound 0.08 µM): 1.18
- relative viability (EPLC-272H; first compound 0.253 µM): 1.08
- relative viability (EPLC-272H; first compound 0.8 µM): 1.19
- relative viability (EPLC-272H; first compound 2.53 µM): 1.11
- relative viability (HCC-44; first compound 0.08 µM): 1.01
- relative viability (HCC-44; first compound 0.253 µM): 0.945
- relative viability (HCC-44; first compound 0.8 µM): 0.948
- relative viability (HCC-44; first compound 2.53 µM): 0.899
- relative viability (HOP-62; first compound 0.08 µM): 1.08
- relative viability (HOP-62; first compound 0.253 µM): 1.02
- relative viability (HOP-62; first compound 0.8 µM): 0.995
- relative viability (HOP-62; first compound 2.53 µM): 0.932
- relative viability (LCLC-97TM1; first compound 0.08 µM): 0.534
- relative viability (LCLC-97TM1; first compound 0.253 µM): 0.399
- relative viability (LCLC-97TM1; first compound 0.8 µM): 0.621
- relative viability (LCLC-97TM1; first compound 2.53 µM): 0.294
- relative viability (LOU-NH91; first compound 0.08 µM): 0.636
- relative viability (LOU-NH91; first compound 0.253 µM): 0.627
- relative viability (LOU-NH91; first compound 0.8 µM): 0.692
- relative viability (LOU-NH91; first compound 2.53 µM): 0.652
- relative viability (NCI-H1395; first compound 0.08 µM): 1.11
- relative viability (NCI-H1395; first compound 0.253 µM): 1.33
- relative viability (NCI-H1395; first compound 0.8 µM): 1.2
- relative viability (NCI-H1395; first compound 2.53 µM): 1.16
- relative viability (NCI-H1975; first compound 0.08 µM): 1.08
- relative viability (NCI-H1975; first compound 0.253 µM): 0.784
- relative viability (NCI-H1975; first compound 0.8 µM): 1.06
- relative viability (NCI-H1975; first compound 2.53 µM): 0.768
- relative viability (NCI-H1993; first compound 0.8 µM): 0.698
- relative viability (NCI-H1993; first compound 2.53 µM): 0.787
- relative viability (NCI-H2085; first compound 0.08 µM): 1.1
- relative viability (NCI-H2085; first compound 0.253 µM): 1.1
- relative viability (NCI-H2085; first compound 0.8 µM): 1.13
- relative viability (NCI-H2085; first compound 2.53 µM): 0.882
- relative viability (NCI-H2126; first compound 0.08 µM): 0.773
- relative viability (NCI-H2126; first compound 0.253 µM): 0.653
- relative viability (NCI-H2126; first compound 0.8 µM): 0.813
- relative viability (NCI-H2126; first compound 2.53 µM): 0.739
- relative viability (NCI-H2170; first compound 0.08 µM): 0.427
- relative viability (NCI-H2170; first compound 0.253 µM): 0.441
- relative viability (NCI-H2170; first compound 0.8 µM): 0.501
- relative viability (NCI-H2170; first compound 2.53 µM): 0.422
- relative viability (NCI-H2228; first compound 0.08 µM): 1.13
- relative viability (NCI-H2228; first compound 0.253 µM): 0.838
- relative viability (NCI-H2228; first compound 0.8 µM): 0.94
- relative viability (NCI-H2228; first compound 2.53 µM): 1.1
- relative viability (NCI-H2405; first compound 0.08 µM): 0.945
- relative viability (NCI-H2405; first compound 0.253 µM): 0.762
- relative viability (NCI-H2405; first compound 0.8 µM): 0.886
- relative viability (NCI-H2405; first compound 2.53 µM): 0.555
- relative viability (NCI-H3122; first compound 0.08 µM): 1.03
- relative viability (NCI-H3122; first compound 0.253 µM): 1.04
- relative viability (NCI-H3122; first compound 0.8 µM): 1.04
- relative viability (NCI-H3122; first compound 2.53 µM): 0.886
- relative viability (NCI-H322M; first compound 0.08 µM): 1.26
- relative viability (NCI-H322M; first compound 0.253 µM): 0.748
- relative viability (NCI-H322M; first compound 0.8 µM): 1.21
- relative viability (NCI-H322M; first compound 2.53 µM): 1.03
- relative viability (NCI-H460; first compound 0.08 µM): 1.38
- relative viability (NCI-H460; first compound 0.253 µM): 1.03
- relative viability (NCI-H460; first compound 0.8 µM): 1.1
- relative viability (NCI-H460; first compound 2.53 µM): 1.16
- relative viability (NCI-H520; first compound 0.08 µM): 1.21
- relative viability (NCI-H520; first compound 0.253 µM): 0.988
- relative viability (NCI-H520; first compound 0.8 µM): 0.861
- relative viability (NCI-H520; first compound 2.53 µM): 0.885
- relative viability (NCI-H647; first compound 0.08 µM): 1.18
- relative viability (NCI-H647; first compound 0.253 µM): 0.94
- relative viability (NCI-H647; first compound 0.8 µM): 0.881
- relative viability (NCI-H647; first compound 2.53 µM): 0.877
- relative viability (SK-LU-1; first compound 0.08 µM): 0.674
- relative viability (SK-LU-1; first compound 0.253 µM): 0.9
- relative viability (SK-LU-1; first compound 0.8 µM): 0.714
- relative viability (SK-LU-1; first compound 2.53 µM): 0.791
